For assay [1], the system named is DLD-1 cells, phospho-p38 western blot, 24 h. In words: phospho-p38 protein level change, either direction, late-stage follow-up, counter-screen for KLF5 inhibitor project, DLD1 cells, chemiluminescent western blot, powder samples (AID 588616). The following applies: measured here: phospho-p38 band fold change vs DMSO; at 10 µM; stronger effect = lower value. (In general: The purpose of a counterscreen is to sort out artefacts and off-target activity.)

In assay [2] the target is Mitogen-activated protein kinase 14 (Homo sapiens) (UniProt Q16539). Described as above. The conditions noted are these: DLD-1 cells, phospho-p38 western blot, 24 h; at 10 µM; stronger effect = higher value.
Mitogen-activated protein kinase 14 (Homo sapiens), sequence (Q16539 whole entry, looked up): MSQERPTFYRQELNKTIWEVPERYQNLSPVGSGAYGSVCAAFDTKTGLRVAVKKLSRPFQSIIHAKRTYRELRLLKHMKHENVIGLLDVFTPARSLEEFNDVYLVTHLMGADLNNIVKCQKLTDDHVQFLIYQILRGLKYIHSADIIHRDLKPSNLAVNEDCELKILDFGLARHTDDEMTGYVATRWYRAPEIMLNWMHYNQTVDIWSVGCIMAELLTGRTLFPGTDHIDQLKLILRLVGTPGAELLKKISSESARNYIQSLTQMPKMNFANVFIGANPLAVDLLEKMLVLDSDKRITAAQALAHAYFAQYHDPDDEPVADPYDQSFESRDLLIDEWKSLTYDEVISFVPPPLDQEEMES

Compound `CN(C(=O)CNC(=O)/C=C/c1cccc(Cl)c1)C1CCS(=O)(=O)C1` (stereo unspecified) displayed a fold change in assay [1] of 2.14. Besides, in assay [2], the inhibition (usually the drop in the measured response relative to a control, in per cent) was -114%.

On to `CN(C(=O)COC(=O)/C=C/c1cccc([N+](=O)[O-])c1)C1CCS(=O)(=O)C1` (stereo unspecified), for which, in assay [1], the fold change came out at 2.97. The inhibition in assay [2] is -197%.

With `CN(C(=O)CNC(=O)/C=C/c1cccc(Cl)c1)C1CCS(=O)(=O)CC1`, in assay [1], the fold change was found to be 2.44. In addition, in assay [2], the inhibition was -144%.

Source of the values: PubChem BioAssay AID588616 (The Scripps Research Institute Molecular Screening Center, 2011).
